Test results: article PMC1847840, “Structural and Chemical Profiling of the Human Cytosolic Sulfotransferases” (PLoS Biology, 2007)
Blank lines part the entries; values can stand above or below the compound they belong to.

How the values were obtained:
[1] = target: T1, SULT1C3 (Homo sapiens, UniProt Q6IMI6); assay: thermal aggregation shift (StarGazer static light scattering); type: binding; conditions: 1 mM compound
T1 construct: recombinant, modified pET28a-LIC, bacterial expression; extra Gly-Ser at N-terminus
T1 sequence (Q6IMI6 whole entry): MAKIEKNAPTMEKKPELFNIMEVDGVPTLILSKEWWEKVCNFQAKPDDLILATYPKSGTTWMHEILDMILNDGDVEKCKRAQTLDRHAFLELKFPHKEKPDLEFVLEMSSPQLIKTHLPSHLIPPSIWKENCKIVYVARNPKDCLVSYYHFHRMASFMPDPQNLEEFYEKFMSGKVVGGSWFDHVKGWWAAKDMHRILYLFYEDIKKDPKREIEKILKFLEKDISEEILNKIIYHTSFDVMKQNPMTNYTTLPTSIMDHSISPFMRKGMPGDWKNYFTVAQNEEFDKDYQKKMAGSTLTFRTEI

[2] = target: T2, SULT1C2 (Homo sapiens, UniProt O75897); assay: as above; type: binding; conditions: 1 mM compound, pH 7.5, no other ligand
T2 construct: gene SULT1C4; recombinant, modified pET28a-LIC, bacterial expression; extra Gly-Ser at N-terminus
T2 sequence (O75897 whole entry): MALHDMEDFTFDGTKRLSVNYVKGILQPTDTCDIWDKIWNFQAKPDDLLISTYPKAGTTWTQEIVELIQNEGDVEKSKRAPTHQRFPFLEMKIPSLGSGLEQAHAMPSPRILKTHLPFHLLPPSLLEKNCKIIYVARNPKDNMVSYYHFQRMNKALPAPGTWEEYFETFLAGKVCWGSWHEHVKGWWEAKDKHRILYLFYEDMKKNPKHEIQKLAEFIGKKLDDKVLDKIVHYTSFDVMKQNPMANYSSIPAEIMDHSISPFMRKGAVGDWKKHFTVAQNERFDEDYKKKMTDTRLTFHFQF
From the text: thermal aggregation shift (StarGazer static light scattering) on SULT1C2

[3] = target: T3, SULT1C1 (Homo sapiens, UniProt O00338); assay: as above; type: binding; conditions: 1 mM compound
T3 construct: gene SULT1C2; recombinant, modified pET28a-LIC; extra Gly-Ser at N-terminus
T3 sequence (O00338 whole entry): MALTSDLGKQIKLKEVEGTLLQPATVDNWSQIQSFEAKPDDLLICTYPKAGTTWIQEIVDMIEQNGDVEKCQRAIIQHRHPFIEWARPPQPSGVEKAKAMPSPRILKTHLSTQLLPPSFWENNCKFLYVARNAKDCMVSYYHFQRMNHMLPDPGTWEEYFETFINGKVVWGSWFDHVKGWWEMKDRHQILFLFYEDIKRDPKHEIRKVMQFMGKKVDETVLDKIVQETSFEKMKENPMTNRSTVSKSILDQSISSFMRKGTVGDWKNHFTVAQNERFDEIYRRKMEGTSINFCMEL
From the text: thermal aggregation shift (StarGazer static light scattering) on SULT1C1

[4] = target: T4, SULT1B1 (Homo sapiens, UniProt O43704); assay: as above; type: binding; conditions: 1 mM compound
T4 construct: recombinant, modified pET28a-LIC, bacterial expression; extra Gly-Ser at N-terminus
T4 sequence (O43704 whole entry): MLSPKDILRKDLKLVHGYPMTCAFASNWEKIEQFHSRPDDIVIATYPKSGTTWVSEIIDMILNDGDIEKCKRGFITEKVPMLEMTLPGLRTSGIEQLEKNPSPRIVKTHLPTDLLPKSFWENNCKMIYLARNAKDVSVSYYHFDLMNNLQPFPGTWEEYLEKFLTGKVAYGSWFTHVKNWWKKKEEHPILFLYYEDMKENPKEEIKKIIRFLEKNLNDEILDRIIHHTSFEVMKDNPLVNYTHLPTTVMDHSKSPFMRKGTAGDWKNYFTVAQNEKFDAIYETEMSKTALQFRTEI
From the text: thermal aggregation shift (StarGazer static light scattering) on SULT1B1

[5] = target: T5, SULT4A1 (Homo sapiens, UniProt Q9BR01); assay: as above; type: binding; conditions: 1 mM compound, pH 7.5, without PAP
T5 construct: recombinant, modified pET28a-LIC, bacterial expression; extra Gly-Ser at N-terminus
T5 sequence (Q9BR01 1-284): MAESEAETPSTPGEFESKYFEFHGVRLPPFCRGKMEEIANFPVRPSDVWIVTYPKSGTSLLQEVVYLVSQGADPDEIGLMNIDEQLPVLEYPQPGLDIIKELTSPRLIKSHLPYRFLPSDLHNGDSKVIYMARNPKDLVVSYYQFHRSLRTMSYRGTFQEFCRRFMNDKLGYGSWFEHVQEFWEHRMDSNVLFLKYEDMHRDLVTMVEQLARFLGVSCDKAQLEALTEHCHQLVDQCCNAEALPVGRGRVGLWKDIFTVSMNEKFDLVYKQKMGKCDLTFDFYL
From the text: thermal aggregation shift (StarGazer static light scattering) on SULT4A1

[6] = target: T6, SULT1A3 (Homo sapiens, UniProt P0DMM9); assay: as above; type: binding; conditions: 1 mM compound, pH 7.5, with saturating PAP
T6 construct: purified recombinant; clone and tag not described; SULT1A4 encodes the same protein
T6 sequence (P0DMM9 whole entry): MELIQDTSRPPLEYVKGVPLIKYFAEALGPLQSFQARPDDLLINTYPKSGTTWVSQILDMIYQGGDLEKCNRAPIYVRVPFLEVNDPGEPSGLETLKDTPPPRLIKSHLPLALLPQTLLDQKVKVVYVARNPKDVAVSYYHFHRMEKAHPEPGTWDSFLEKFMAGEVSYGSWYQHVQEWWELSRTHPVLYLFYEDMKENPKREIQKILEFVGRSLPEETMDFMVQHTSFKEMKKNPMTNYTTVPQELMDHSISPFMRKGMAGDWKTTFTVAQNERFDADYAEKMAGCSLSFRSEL
From the text: thermal aggregation shift (StarGazer static light scattering) on SULT1A3

[7] = target: T4, SULT1B1; assay: HPLC PAPS to PAP conversion, inhibition of sulfotransferase activity; type: biochemical; conditions: 1-naphthol as substrate; PCP 5 to 312 μM; pH 7.5, 37 °C
[8] = target: T2, SULT1C2; assay: X-ray crystal structure, […] Å; type: binding; conditions: ternary complex with PAP; substrate pocket
[9] = target: T7, SULT1A1 (Homo sapiens, UniProt P50225); assay: thermal aggregation shift (StarGazer static light scattering); type: binding; conditions: 1 mM compound, pH 7.5, with saturating PAP
T7 construct: purified recombinant; clone and tag not described
T7 sequence (P50225 whole entry): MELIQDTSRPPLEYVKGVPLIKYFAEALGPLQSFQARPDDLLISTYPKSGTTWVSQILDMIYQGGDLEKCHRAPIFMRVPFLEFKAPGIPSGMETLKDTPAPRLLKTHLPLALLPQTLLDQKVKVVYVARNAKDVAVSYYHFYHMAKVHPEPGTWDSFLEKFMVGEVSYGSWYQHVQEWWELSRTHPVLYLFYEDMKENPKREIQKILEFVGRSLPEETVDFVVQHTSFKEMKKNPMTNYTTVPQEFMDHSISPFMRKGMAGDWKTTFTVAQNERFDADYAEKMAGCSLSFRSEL
From the text: thermal aggregation shift (StarGazer static light scattering) on SULT1A1

[10] = target: T8, SULT2A1 (Homo sapiens, UniProt Q06520); assay: as above; type: binding; conditions: 1 mM compound, pH 7.5, without PAP
T8 construct: purified recombinant; clone and tag not described
T8 sequence (Q06520 1-285): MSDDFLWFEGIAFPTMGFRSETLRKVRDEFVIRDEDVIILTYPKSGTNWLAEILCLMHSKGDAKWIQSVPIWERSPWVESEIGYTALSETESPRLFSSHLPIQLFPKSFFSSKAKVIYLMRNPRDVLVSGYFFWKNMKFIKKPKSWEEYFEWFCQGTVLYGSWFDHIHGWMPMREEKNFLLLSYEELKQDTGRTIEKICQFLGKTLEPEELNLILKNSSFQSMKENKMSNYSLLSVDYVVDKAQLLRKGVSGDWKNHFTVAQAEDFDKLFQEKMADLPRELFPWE
From the text: thermal aggregation shift (StarGazer static light scattering) on SULT2A1

[11] = target: T9, SULT1E1 (Homo sapiens, UniProt P49888); assay: as above; type: binding; conditions: 1 mM compound, pH 7.5, with saturating PAP
T9 construct: purified recombinant; clone and tag not described
T9 sequence (P49888 1-294): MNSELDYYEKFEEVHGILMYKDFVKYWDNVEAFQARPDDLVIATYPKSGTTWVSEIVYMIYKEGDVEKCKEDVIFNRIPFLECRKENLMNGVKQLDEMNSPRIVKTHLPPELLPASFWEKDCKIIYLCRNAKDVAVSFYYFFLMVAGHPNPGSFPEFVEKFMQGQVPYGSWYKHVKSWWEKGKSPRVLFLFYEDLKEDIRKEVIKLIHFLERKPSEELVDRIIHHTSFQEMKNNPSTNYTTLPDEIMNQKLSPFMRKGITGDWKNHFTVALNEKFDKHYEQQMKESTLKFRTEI
From the text: thermal aggregation shift (StarGazer static light scattering) on SULT1E1

- dTagg [5]: 16 °C
SMILES: CNC[C@H](O)c1ccc(O)c(O)c1 [epinephrine]

- dTagg [5]: 18 °C
SMILES: CC(C)NCC(O)c1ccc(O)c(O)c1 (stereo not shown) [isoprenaline]

- dTagg ([3]; pH 7.5, without PAP): 6.6 °C
SMILES: Oc1ccc(/C=C/c2cc(O)cc(O)c2)cc1 [resveratrol]

- dTagg ([4]; pH 7.5, without PAP): 11.4 °C
SMILES: O=C(NN=Cc1coc2c(Cl)cc(Cl)cc2c1=O)c1cc(Br)c(O)c(Br)c1 [DBHD, 3,5-dibromo-4-hydroxy-benzoic acid (6,8-dichloro-4-oxo-4H-chromen-3-ylmethylene) hydrazide]

Second part, the compound before the results:

SMILES: Nc1ncnc2c1ncn2[C@@H]1O[C@H](COP(=O)(O)O)[C@@H](OP(=O)(O)O)[C@H]1O [3′-phosphoadenosine 5′-phosphate]
- dTagg ([1]; pH 7.5, no other ligand): 6.5 °C
- dTagg [2]: 6.4 °C
- dTagg ([3]; pH 7.5, no other ligand): 4.5 °C
- dTagg ([4]; pH 7.5, no other ligand): 7.8 °C

SMILES: NCCc1ccc(O)c(O)c1 [dopamine]
- dTagg [6]: 2.3 °C

SMILES: Oc1c(Cl)c(Cl)c(Cl)c(Cl)c1Cl [pentachlorophenol]
- % inhibition [7]: PCP and DBHD were strong inhibitors of SULT1B1
- X-ray crystal structure, 1.8 Å [8]: we determined the structure of SULT1C2 bound to PAP and PCP
- dTagg ([4]; pH 7.5, with saturating PAP): 8.9 °C
- dTagg [9]: 10.2 °C

SMILES: C[C@H](CCC(=O)O)[C@H]1CC[C@H]2[C@@H]3CC[C@@H]4C[C@H](O)CC[C@]4(C)[C@H]3CC[C@]12C [lithocholic acid]
- dTagg [10]: 4.4 °C

SMILES: CCc1ccccc1O [2-ethylphenol]
- dTagg ([1]; pH 7.5, with saturating PAP): 2.1 °C

SMILES: C[C@H]1CCC[C@H](O)CCC/C=C/c2cc(O)cc(O)c2C(=O)O1 [α-zearalenol]
- dTagg ([1]; pH 7.5, with saturating PAP): 2.8 °C

SMILES: O=c1c(O)c(-c2ccc(O)c(O)c2)oc2cc(O)cc(O)c12 [quercetin dihydrate]
- dTagg ([3]; pH 7.5, without PAP): 31 °C

SMILES: C#C[C@]1(O)CC[C@H]2[C@@H]3CCc4cc(O)ccc4[C@H]3CC[C@@]21C [17α-ethinylestradiol]
- dTagg [11]: 4.3 °C

SMILES: O=[N+]([O-])c1cc(Cl)c(O)c(Cl)c1 [2,6-dichloro-4-nitrophenol]
- dTagg [9]: 8.7 °C
